According to US20260317319A1, “NOVEL ERGOLINES AND METHODS OF TREATING MOOD DISORDERS” (Gilgamesh Pharma Inc., priority 2023, published 2026):
Read-outs that look alike come from different tables or passages of the source.

How the values were obtained:
5-HT2B receptor [1] = biological target: T1, 5-HT2B receptor (Homo sapiens, UniProt P41595); assay: cell-based; type: cell-based; settings: Ca2+ flux; for Emax: HEK293, agonist, HEK293, max dose, read-out: 5-HT2B % Act @ Max Dose; for EC50: agonist, HEK293
T1 construct: expressed in transfected cells; host or cells: HEK293, stably transfected
T1 sequence (P41595 whole entry): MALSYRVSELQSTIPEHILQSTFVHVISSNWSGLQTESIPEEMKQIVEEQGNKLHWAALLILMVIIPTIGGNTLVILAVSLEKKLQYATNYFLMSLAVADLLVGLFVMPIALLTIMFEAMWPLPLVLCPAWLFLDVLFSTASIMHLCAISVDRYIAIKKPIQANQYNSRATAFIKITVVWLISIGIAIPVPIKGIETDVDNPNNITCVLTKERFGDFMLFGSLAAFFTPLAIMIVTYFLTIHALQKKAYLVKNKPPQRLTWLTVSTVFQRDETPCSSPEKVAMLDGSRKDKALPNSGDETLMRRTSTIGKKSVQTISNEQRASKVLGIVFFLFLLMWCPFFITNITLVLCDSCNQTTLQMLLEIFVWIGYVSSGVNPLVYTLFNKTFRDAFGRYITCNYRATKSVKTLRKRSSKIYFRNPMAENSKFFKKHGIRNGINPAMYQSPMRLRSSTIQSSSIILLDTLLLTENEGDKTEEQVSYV
Outline: (§1)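 FLIPR Tetra fluorescence read-out of calcium flux after compound addition. Receptor-expressing stable lines were used (HEK293 for 2A/2B; CHO with Gα15 for 1A), dye-loaded with Fluo-4 Direct and 2.5 mM final probenecid, 50 min at 37 °C.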

[2] = biological target: T2, Alpha1A adrenergic receptor (Homo sapiens, UniProt P35348); assay: Ca2+ flux functional assay at Alpha1A; type: cell-based; settings: agonist, Ca2+ flux, max dose; read-out: Alpha 1A % Act @ Max Dose
T2 construct: expressed in transfected cells
T2 sequence (P35348 1-466): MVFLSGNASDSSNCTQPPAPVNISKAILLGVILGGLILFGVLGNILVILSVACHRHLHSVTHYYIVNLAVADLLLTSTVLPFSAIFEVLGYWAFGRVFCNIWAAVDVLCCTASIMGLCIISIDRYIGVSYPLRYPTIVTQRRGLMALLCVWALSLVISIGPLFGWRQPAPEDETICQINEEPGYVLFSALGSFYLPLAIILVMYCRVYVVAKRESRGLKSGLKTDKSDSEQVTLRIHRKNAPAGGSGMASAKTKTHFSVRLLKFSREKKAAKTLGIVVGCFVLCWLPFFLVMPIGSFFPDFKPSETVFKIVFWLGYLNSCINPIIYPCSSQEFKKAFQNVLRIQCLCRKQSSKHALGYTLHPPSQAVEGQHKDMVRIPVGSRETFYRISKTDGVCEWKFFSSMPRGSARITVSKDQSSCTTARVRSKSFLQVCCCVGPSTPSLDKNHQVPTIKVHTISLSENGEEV
Experimental: Disclosed compounds were tested for agonist activity at several adrenergic (Alpha1A and Alpha2A) and dopamine (D1 and D2) receptor subtypes using Ca^2+ flux functional assays, with the results summarized in Table 6. Selectivity for the 5-HT2A receptor over these other targets varied depending on the specific target and compound.
(§2) Functional Assays at Adrenergic and Dopamine Receptors. Agonist activity at Alpha1A, Alpha2A, D1, and D2 receptors was determined using a FLIPR Ca^2+ flux assay at WuXi AppTec (Hong Kong) Limited according to their standard protocols. Briefly, stably transfected cells expressing the receptor of interest were grown and plated in a 384 well plate and incubated at 37° C. and 5% CO2 overnight. A solution of 250 mM probenecid in 1 mL FLIPR assay buffer was prepared fresh. This was combined with a fluorescent dye (Fluo-4 Direct™) to make a final assay concentration of 2.5 mM. Compounds were diluted 1:3.16 for 10 points and 750 nL was added to a 384 well compound plate using ECHO along with 30 μL assay buffer. The fluorescent dye was then added to the assay plate along with assay buffer to a final volume of 40 μL. The cell plate was incubated for 50 min at 37° C. and 5% CO2 and placed into the FLIPR Tetra along with the compound plate. 10 μL of references and compounds were then transferred from the compound plate into the cell plate and the fluorescent signal was read.

5-HT1A receptor = biological target: T3, 5-HT1A receptor (Homo sapiens, UniProt P08908); assay: cell-based; settings: agonist, Ca2+ flux; for Emax: CHO, CHO cells with Gα15, max dose, read-out: 5-HT1A % Act @ Max Dose; for EC50: CHO cells with Gα15
T3 construct: expressed in transfected cells; host or cells: CHO cells, stably transfected
T3 sequence (P08908 1-422): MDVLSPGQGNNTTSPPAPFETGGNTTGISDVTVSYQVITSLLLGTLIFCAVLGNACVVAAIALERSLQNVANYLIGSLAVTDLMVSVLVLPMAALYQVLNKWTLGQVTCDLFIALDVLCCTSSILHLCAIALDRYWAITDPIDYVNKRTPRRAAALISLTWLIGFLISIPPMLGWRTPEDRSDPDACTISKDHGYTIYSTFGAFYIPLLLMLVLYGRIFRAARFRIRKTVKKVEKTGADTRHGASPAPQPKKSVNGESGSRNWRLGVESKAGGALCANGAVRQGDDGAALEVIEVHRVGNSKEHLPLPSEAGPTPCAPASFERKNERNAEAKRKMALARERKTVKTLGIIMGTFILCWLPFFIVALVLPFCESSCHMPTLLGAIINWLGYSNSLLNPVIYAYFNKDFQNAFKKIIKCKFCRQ
Outline: as §1

5-HT1B receptor = biological target: T4, 5-HT1B receptor (Homo sapiens, UniProt P28222); assay: cAMP accumulation functional assay at 5-HT1B; type: cell-based; settings: agonist, cAMP accumulation, max dose; read-out: 5-HT1B % Act @ Max Dose
T4 construct: expressed in transfected cells
T4 sequence (P28222 whole entry): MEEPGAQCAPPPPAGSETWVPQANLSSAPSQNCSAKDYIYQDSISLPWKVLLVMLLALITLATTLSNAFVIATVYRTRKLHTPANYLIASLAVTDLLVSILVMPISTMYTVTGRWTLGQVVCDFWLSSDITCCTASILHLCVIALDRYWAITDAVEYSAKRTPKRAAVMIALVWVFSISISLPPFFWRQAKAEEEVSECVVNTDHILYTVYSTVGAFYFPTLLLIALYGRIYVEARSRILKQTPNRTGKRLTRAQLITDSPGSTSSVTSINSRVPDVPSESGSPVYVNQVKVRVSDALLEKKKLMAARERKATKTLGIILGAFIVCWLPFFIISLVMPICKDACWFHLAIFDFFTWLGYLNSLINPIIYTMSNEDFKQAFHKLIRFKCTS
Outline: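 Stably transfected human 5-HT1B cells were incubated 60 min at room temperature, after which detection reagent was applied for another 60 min at RT. The read-out was cAMP accumulation, used as a measure of agonist activity.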

in vitro [3] = type: in vitro ADME, human; settings: HLM 0.50 mg/mL, NADPH 1 mM, 1 μM compound, pH 7.4, 37° C., 60 min; for microsomal CLint / half-life: human, microsomes; for microsomal CLint: read-out: Intrinsic clearance (Clint); for half-life: read-out: half-life (t1/2)
in vitro [4] = type: in vitro ADME, rat; settings: RLM (male Sprague-Dawley) 0.50 mg/mL, NADPH 1 mM, 1 μM compound, pH 7.4, 37° C., 60 min; for microsomal CLint / half-life: rat, microsomes; for microsomal CLint: read-out: Intrinsic clearance (Clint); for half-life: read-out: half-life (t1/2)
Description: RLM Stability Pooled RLM from male Sprague-Dawley rats (Xenotech R1000) were used.

in vitro [5] = type: in vitro ADME, mouse; settings: MLM (male CD-1) 0.50 mg/mL, NADPH 1 mM, 1 μM compound, pH 7.4, 37° C., 60 min; for microsomal CLint / half-life: mouse, microsomes; for microsomal CLint: read-out: Intrinsic clearance (Clint); for half-life: read-out: half-life (t1/2)
Description: MLM Stability Pooled MLM from male CD-1 mice (BIOIVT M00501) were used.

5-HT2A receptor [6] = biological target: T5, 5-HT2A receptor (Homo sapiens, UniProt P28223); assay: cell-based; type: cell-based; parameters: expressed in transfected cells; host or cells: HEK293, stably transfected; settings: Ca2+ flux; for Emax: HEK293, agonist, HEK293, max dose, read-out: 5-HT2A % Act @ Max Dose; for EC50: agonist, HEK293
T5 sequence (P28223 whole entry): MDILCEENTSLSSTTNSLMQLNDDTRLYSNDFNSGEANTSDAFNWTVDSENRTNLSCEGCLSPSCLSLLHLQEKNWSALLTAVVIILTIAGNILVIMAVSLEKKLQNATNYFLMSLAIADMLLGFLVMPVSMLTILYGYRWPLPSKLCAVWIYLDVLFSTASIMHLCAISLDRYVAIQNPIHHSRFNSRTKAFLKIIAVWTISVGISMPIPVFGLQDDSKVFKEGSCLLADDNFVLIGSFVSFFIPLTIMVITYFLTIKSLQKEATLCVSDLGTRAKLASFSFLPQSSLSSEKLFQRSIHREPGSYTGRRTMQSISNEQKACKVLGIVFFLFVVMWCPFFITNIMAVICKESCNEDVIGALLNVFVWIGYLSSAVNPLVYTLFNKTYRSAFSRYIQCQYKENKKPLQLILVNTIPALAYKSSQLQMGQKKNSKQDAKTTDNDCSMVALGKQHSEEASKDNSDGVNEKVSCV
Outline: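 Stable HEK293 (5-HT2A, 5-HT2B) or CHO/Gα15 (5-HT1A) cells; Fluo-4 Direct, probenecid 2.5 mM final; 50 min dye load, 37 °C, 5% CO2; agonist-mode Ca2+ flux, FLIPR Tetra.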

5-HT2C receptor = biological target: T6, 5-HT2C receptor (Homo sapiens, UniProt P28335); assay: Ca2+ flux functional assay at 5-HT2C (WuXi 5-HT2C protocol); type: cell-based; parameters: expressed in transfected cells; settings: for Emax: agonist, tested using WuXi 5-HT2C protocol, max dose, read-out: 5-HT2C % Act @ Max Dose (* WuXi protocol)
T6 sequence (P28335 33-458): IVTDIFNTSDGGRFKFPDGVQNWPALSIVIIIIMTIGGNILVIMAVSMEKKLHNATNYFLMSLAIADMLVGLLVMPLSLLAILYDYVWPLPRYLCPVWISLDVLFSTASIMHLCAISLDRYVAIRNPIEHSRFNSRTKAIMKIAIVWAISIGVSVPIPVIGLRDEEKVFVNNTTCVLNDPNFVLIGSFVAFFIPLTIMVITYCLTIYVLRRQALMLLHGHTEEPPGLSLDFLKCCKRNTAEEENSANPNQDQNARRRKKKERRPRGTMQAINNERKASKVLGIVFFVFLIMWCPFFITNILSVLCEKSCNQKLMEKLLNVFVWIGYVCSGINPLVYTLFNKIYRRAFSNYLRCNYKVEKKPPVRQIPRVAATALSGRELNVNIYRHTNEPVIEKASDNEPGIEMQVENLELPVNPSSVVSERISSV
Experimental: Disclosed compounds were tested for agonist activity at several serotonin receptor subtypes (5-HT2A, […], 5-HT2C, and 5-HT1A) using Ca^2+ flux functional assays and the 5-HT1B receptor using a cAMP accumulation assay, with the results summarized in Table 4. […] Potent agonist activity was also observed at the other serotonin receptors tested, although the selectivity profile among the receptors varied across compounds. […] However, at the same time, the N-propyl compounds were more efficacious agonists at 5-HT2B than the corresponding N-methyl compounds. The selectivity of disclosed compounds for 5-HT2A over 5-HT2C and 5-HT1A was less predictable and varied widely across compounds. […] An azetidinyl amide substituent tended to increase potency at 5-HT1A relative to 5-HT2A.
as §2, with “5-HT2A, 5-HT2B,” for “Adrenergic”, “5-HT1A.” for “Dopamine Receptors.”, “5-HT2A, 5-HT2B, 5HT2C” for “Alpha1A, Alpha2A, D1,”, “5-HT1A” for “D2”, “interest and Gα15 in the case of 5-HT1A (HEK293 for 5-HT2A and 5-HT2B; CHO cells for 5-HT1A)” for “interest”

5-HT2B receptor [7] = biological target: T1, 5-HT2B receptor; assay: 5-HT2B receptor radioligand binding ([3H]LSD); settings: read-out: 5-HT2B Receptor Ki
5-HT2A receptor [8] = biological target: T5, 5-HT2A receptor; assay: biochemical; type: binding; parameters: expressed in transfected cells; host or cells: HEK293, stably transfected; settings: [3H]ketanserin 1 nM; HEK293 stable cell line; 1 h, 25 °C
Outline: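 Test compounds competed with [^3H]ketanserin for receptor binding, and affinity was derived from the radioligand displacement.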

Row | SMILES | Emax (5-HT2B receptor [1]) [%] | Emax (5-HT1A receptor) [%] | Emax (5-HT2A receptor [6]) [%] | EC50 (5-HT2B receptor [1]) [nM] | EC50 (5-HT1A receptor) [nM] | EC50 (5-HT2C receptor) [nM] | Emax (5-HT2C receptor) [%] | Ki (5-HT2B receptor [7]) [nM] | microsomal CLint (in vitro [3]) [µL/min/mg] | half-life (in vitro [3]) [min] | microsomal CLint (in vitro [4]) [µL/min/mg] | half-life (in vitro [4]) [min] | microsomal CLint (in vitro [5]) [µL/min/mg] | half-life (in vitro [5]) [min] | EC50 (5-HT2A receptor [6]) [nM] | Ki (5-HT2A receptor [8]) [nM] | also measured
1 | CCN(CC)C(=O)[C@@H]1C=C2c3cccc4[nH]cc(c34)C[C@H]2N(CCC(F)(F)F)C1 [Compound 12, (6aR,9R)—N,N-diethyl-7-(3,3,3-trifluoropropyl)-4,6,6a,7,8,9-hexahydroindolo[4,3-fg]quinoline-9-carboxamide] | 29.6 | 71.4 | 78.7 |  |  |  |  |  |  |  |  |  |  |  |  |  | Emax [2]: 2.08%; Emax (5-HT1B receptor): 95.5%; half-life (t1/2) (in vitro [3]): 13.5 min; half-life (t1/2) (in vitro [4]): 5.9 min; half-life (t1/2) (in vitro [5]): 2.1 min
2 | CCN(C)C(=O)[C@@H]1C=C2c3cccc4[nH]cc(c34)C[C@H]2N(Cc2cccc(OC)c2)C1 [Compound 92, (6aR,9R)—N-ethyl-7-(3-methoxybenzyl)-N-methyl-4,6,6a,7,8,9-hexahydroindolo[4,3-fg]quinoline-9-carboxamide] | 0.48 | 21.6 | 53.8 | > 10000 | > 100000 | > 10000 | 12.5 | 1950 | 140 | 9.9 | 278 | 5 | 321 | 4.3 | 793 | 11.1 | 
3 | CN(C)C(=O)[C@@H]1C=C2c3cccc4[nH]cc(c34)C[C@H]2N(Cc2ccccc2)C1 [Compound 102, (6aR,9R)-7-benzyl-N,N-dimethyl-4,6,6a,7,8,9-hexahydroindolo[4,3-fg]quinoline-9-carboxamide] | 5.86 | 90.1 | 65.2 | > 10000 | 26200 | 685 | 76.6 | 170 | 16.9 | 82 | 134 | 10.3 | 111 | 12.5 | 155 | 10.8 | 
4 | CCN(C)C(=O)[C@@H]1C=C2c3cccc4[nH]cc(c34)C[C@H]2N(CC2CCCC2)C1 [Compound 103, (6aR,9R)-7-(cyclopentylmethyl)-N-ethyl-N-methyl-4,6,6a,7,8,9-hexahydroindolo[4,3-fg]quinoline-9-carboxamide] | 5.54 | 122 | 80.1 | > 10000 | 84400 | > 10000 | 21.7 | 11.7 | 121 | 11.4 | 185 | 7.5 | 277 | 5 | 422 | 1.6 | 
